The source of these data is patent US9210928B2, “Plant development control composition” (Syngenta Crop Protection, LLC, priority 2008, dated 2015).

Entries after “also recorded” stand apart in the source; their conditions may differ.

For the experiment, the target named is T1, AtCCD7 (Arabidopsis thaliana, UniProt Q7XJM2).
T1 construct: expressed in transfected cells; host or cells: E. coli BL21(DE3) harbouring pAC-BETA
T1 sequence (Q7XJM2 32-618): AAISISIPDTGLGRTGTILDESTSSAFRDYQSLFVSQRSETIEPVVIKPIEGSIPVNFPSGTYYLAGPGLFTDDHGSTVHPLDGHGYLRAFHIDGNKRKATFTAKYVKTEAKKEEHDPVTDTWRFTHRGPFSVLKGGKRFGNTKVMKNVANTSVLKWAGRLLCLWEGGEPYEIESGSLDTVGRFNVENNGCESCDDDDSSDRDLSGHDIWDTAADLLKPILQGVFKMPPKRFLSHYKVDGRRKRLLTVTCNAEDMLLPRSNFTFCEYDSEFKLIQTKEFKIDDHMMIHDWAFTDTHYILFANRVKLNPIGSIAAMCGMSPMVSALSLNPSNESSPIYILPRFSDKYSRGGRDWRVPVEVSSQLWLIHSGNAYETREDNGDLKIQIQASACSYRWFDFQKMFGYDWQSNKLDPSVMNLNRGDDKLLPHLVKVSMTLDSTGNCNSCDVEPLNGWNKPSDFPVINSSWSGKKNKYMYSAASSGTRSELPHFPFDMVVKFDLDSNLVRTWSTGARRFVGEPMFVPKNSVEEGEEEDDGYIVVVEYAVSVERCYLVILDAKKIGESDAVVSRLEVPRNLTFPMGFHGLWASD
Nature of the experiment: In vivo enzyme assay in β-carotene-producing E. coli expressing AtCCD7. It counts as cell-based. The following applies: 100 μM inhibitor, 16 hours; FIG. 4. From the text:
In vivo enzyme assays in E. coli—The genes of interest (supplemental Table S1) were cloned into the vector pET30c (Novagen) fused directly to the initial ATG codon with no tag, or into pGEX-4T such that the gene was fused to an N-terminal GST tag. All genes were full length except AtCCD7, which had the chloroplast signal sequence removed (supplemental methods). […] Therefore, this construct was used in subsequent assays. The plasmids were transferred to the E. coli expression strain BL21(DE3), harbouring pAC-BETA (38), and therefore producing β-carotene.
For each inhibitor assay, 2.5 ml LB media with the appropriate antibiotics (25 μg ml^−1 chloramphenicol and 50 μg ml^−1 kanamycin or 100 μg ml^−1 ampicillin) and 2.5 μM IPTG, was prepared. Inhibitors (0.1 M in 100% ethanol) were added to the media to a final concentration of 100 μM. The media was then inoculated with 0.25 ml of overnight culture (grown at 37° C. with the appropriate antibiotics) and incubated with shaking (200 rpm) at 28° C. for 16 hours. One ml of culture was harvested by microcentrifugation and resuspended thoroughly in 1 ml ethanol containing 0.2% Triton X-100. […] The supernatant was removed and the O.D.453-O.D.550 was measured. The amount of β-carotene was calculated using a standard curve generated from a dilution series of β-carotene (Sigma) in ethanol with 0.2% Triton X-100; the absolute levels of β-carotene are shown in FIG. 8. The relative inhibition was calculated by the equation: (Ci−Cc)/(C1−Cc)×100, where Ci is the carotenoid level with inhibitor and CCD present, Cc is the level with CCD but without the inhibitor and C1 is the level in a strain where lacZ is expressed instead of the CCD, and no inhibitor is present. […]
In vivo activity of inhibitors applied to E. coli strains expressing CCDs—Coloured E. coli strains that produce various carotenoids can be constructed by expression of enzymes for carotenoid synthesis (26). […] The difference in the carotenoid levels gave a measure of CCD activity, and inhibition of this activity was measured by addition of inhibitors to the growing medium. […]

In the case of `COc1ccc(C(=O)N(O)Cc2ccccc2)cc1` [Compound F1, N-benzyl-4-methoxybenzoyl hydroxamic acid], the “relative inhibition of AtCCD7 in E. coli (in words)” value (shortened to “relative inhibition of AtCCD7”) was “poor inhibition; also recorded: relatively small activity; also recorded: relatively ineffective against AtCCD7; also recorded: poor inhibitors against AtCCD7”.

On to `COc1ccc(C(=O)N(O)Cc2ccc(F)cc2)cc1` [Compound F2, N-(4-fluorobenzyl)-4-methoxybenzoyl hydroxamic acid], for which the “relative inhibition of AtCCD7” value is recorded as “poor inhibition; also recorded: relatively small activity; also recorded: relatively ineffective against AtCCD7; also recorded: poor inhibitors against AtCCD7”.

In the case of `COc1ccc(C(=O)N(O)Cc2ccccc2)cc1OC` [Compound F3, N-benzyl-3,4-dimethoxybenzoyl hydroxamic acid], the “relative inhibition of AtCCD7” value is “inactive”.
